Data from patent publication US11497726B2, “Topical therapy for the treatment of cervical intraepithelial neoplasia (CIN) and cervical cancer using nanoparticles of taxanes” (DFB SORIA, LLC, priority 2018, dated 2022).
Like-named read-outs stand apart in the source and are kept apart here.

Assays:
high-grade CIN = conditions: cited from earlier work
[1] = Crystal growth of paclitaxel nanoparticles, visual observation by light microscopy; format: physicochemical
[2] = Particle size of paclitaxel nanoparticle lots (ACCUSIZER 780); format: physicochemical
Procedure: Instrument parameters: Max. Concentration: 9000 particles/mL, No. containers: 1, Sensor Range: Summation, Lower Detection Limit: 0.5 μm, Flow Rate: 30 mL/min, No. Analysis pulls: 4, Time between pulls: 1 sec, Pull volume: 10 mL, Tare Volume: 1 mL, Prime volume: 1 mL, Include First Pull: Not Selected.
Vortexed for 5-10 minutes and sonicated in a water batch for 1 minute.
Method: Filled a plastic bottle with filtered (0.22 μm) 0.1% w/w SDS solution and analyzed the Background.

[3] = Specific surface area (SSA), BET isotherm; format: physicochemical
Procedure: (§1) As used herein, the “specific surface area (SSA)” is the total surface area of the taxane nanoparticle per unit of taxane mass as measured by the Brunauer-Emmett-Teller (“BET”) isotherm by the following method: a known mass between 200 and 300 mg of the analyte is added to a 30 mL sample tube. […] The automated test is then carried out using the BETWIN® software package and the surface area of each sample is subsequently calculated. The bulk density measurement can be conducted by pouring the taxane nanoparticles into a graduated cylinder without tapping at room temperature, measuring the mass and volume, and calculating the bulk density.

[4] = Bulk density (not tapped); format: physicochemical
Procedure: as §1

Gottingen minipigs = assay: Dermal toxicity study, 28 days, GLP; format: in vivo; conditions: topical, daily for 28 days
Procedure: The GLP-compliant study was conducted in Gottingen minipigs to characterize the toxicity of the formulations applied topically to 10% body surface area daily for 28 days. […] Reversibility of findings was also evaluated following a 2-week recovery period. Parameters evaluated included clinical observations, mortality and moribundity checks, dermal scoring, body weight, food consumption, eye examinations, test site photographs, electrocardiology, clinical pathology, bioanalysis and toxicokinetic evaluation, organ weights, macroscopic pathology and histopathology. There were no formulation-related effects on survival, clinical signs, dermal irritation, body weights, body weight gains, food consumption, ophthalmic findings, or cardiology parameters.

[5] = Solubility of paclitaxel in various solvents (HPLC); format: physicochemical
Method: Step “d” was continued for each vial for a total of 48 hours.

[6] = methanol/water 15/85 (v/v), 37° C., pH 7, 75 rpm, cited from earlier work
rabbit skin = conditions: Draize rabbit skin test model; cited from earlier work
[7] = summary statement on the cited study; cited from earlier work
[8] = lot used in formulas listed in Table 3
[9] = lot used in formulas listed in Tables 16-19

CC(C)Cn1cnc2c(N)nc3ccccc3c21 [Imiquimod]
tolerability (high-grade CIN; despite frequent adverse effects such as vaginal discharge, vulvar pain, fever, headache, and fatigue): generally well-tolerated
efficacy in the treatment of high-grade CIN (high-grade CIN; topically applied to the ectocervix): some efficacy

CC(=O)O[C@H]1C(=O)[C@@]2(C)[C@H]([C@H](OC(=O)c3ccccc3)[C@]3(O)C[C@H](OC(=O)[C@H](O)[C@@H](NC(=O)c4ccccc4)c4ccccc4)C(C)=C1C3(C)C)[C@]1(OC(C)=O)CO[C@@H]1C[C@@H]2O [Paclitaxel nanoparticles, paclitaxel]
Needle shaped crystals observed? (visual observation by light microscopy) ([1]; in Aluminum sulfate 0.1-0.2% in water, 7 days, RT): Yes, >5 μm, @
Needle shaped crystals observed? (visual observation by light microscopy) ([1]; in Ammonium lauryl sulfate 2% in water, 3 days, RT): Yes, >5 μm @
Needle shaped crystals observed? (visual observation by light microscopy) ([1]; in Benzalkonium chloride (50%) 2% in water, 7 days & 21 days, RT): No, <5 μm @
Needle shaped crystals observed? (visual observation by light microscopy) ([1]; in CARBOPOL ULTREZ 10 (with Ammonium hydroxide as neutralizer) 0.5% in water, 8 days & 21 days, RT): No, <5 μm, @
Needle shaped crystals observed? (visual observation by light microscopy) ([1]; in Castor Oil 100%, 24 hrs & 9 days, RT): No, <5 μm @
Needle shaped crystals observed? (visual observation by light microscopy) ([1]; in Dimethicone, 1000 cSt 100%, 24 hrs & 6 days, RT): No, <5 μm @
Needle shaped crystals observed? (visual observation by light microscopy) ([1]; in FOMBLIN HC04 100%, 4, 7 & 13 days, RT): No, <5 μm @
Needle shaped crystals observed? (visual observation by light microscopy) ([1]; in Hydroxyethyl cellulose 1% in water, 7 days, RT): Yes, >5 μm, @
Needle shaped crystals observed? (visual observation by light microscopy) ([1]; in Hydroxypropyl methylcellulose 1% in water, 3 days, RT): Yes, >5 μm @
Needle shaped crystals observed? (visual observation by light microscopy) ([1]; in Lecithin 1% in water, 24 hrs, RT): Yes, >10 μm, @
Needle shaped crystals observed? (visual observation by light microscopy) ([1]; in Light Mineral Oil NF 100%, 3 days, RT & 40 C.): No, <5 μm @
Needle shaped crystals observed? (visual observation by light microscopy) ([1]; in Magnesium nitrate 5% in water, 3 days, RT): Yes, >5 μm @
Needle shaped crystals observed? (visual observation by light microscopy) ([1]; in Mannitol 5% in water, 7 days, RT): Yes, >5 μm, @
Needle shaped crystals observed? (visual observation by light microscopy) ([1]; in Mineral Oil USP (heavy) 100%, 3 days, RT & 40 C.): No, <5 μm @
Needle shaped crystals observed? (visual observation by light microscopy) ([1]; in PEG 400 10% in water, 22 days, RT & 60 C.): Yes, >5 μm @
Needle shaped crystals observed? (visual observation by light microscopy) ([1]; in Poloxamer 188 2% in water, 7 days, RT): Yes, >5 μm @
Needle shaped crystals observed? (visual observation by light microscopy) ([1]; in Poloxamer 407 2% in water, 5 & 7 days, RT): No, <5 μm @
Needle shaped crystals observed? (visual observation by light microscopy) ([1]; in Polyoxyl 40 Hydrogenated Castor Oil (KOLLIPHOR RH40) 1% in water, 6 days, RT): Yes, <5 μm @
Needle shaped crystals observed? (visual observation by light microscopy) ([1]; in Polysorbate 80 0.5% in Saline, 7 days, RT & 60 C.): Yes, >5 μm @
Needle shaped crystals observed? (visual observation by light microscopy) ([1]; in Polysorbate 80 0.5% in water, 22 days, RT & 60 C.): Yes, <5 μm @
Needle shaped crystals observed? (visual observation by light microscopy) ([1]; in Povidone 1% in water, 7 days & 21 days, RT): Yes, <5 μm @
Needle shaped crystals observed? (visual observation by light microscopy) ([1]; in Proline 3% in water, 7 days, RT): Yes, >5 μm, @
Needle shaped crystals observed? (visual observation by light microscopy) ([1]; in Purified Water 100%, 5 days, RT & 60 C.): Yes, >5 μm, @
Needle shaped crystals observed? (visual observation by light microscopy) ([1]; in ST-Cyclomethicone 5 NF 100%, 24 hrs & 13 days, RT): No, <5 μm @
Needle shaped crystals observed? (visual observation by light microscopy) ([1]; in Saline 0.9% NaCl in water, 7 days, RT & 60 C.): Yes, >10 μm, @
Needle shaped crystals observed? (visual observation by light microscopy) ([1]; in Sodium lauryl sulfate 2% in water, 7 days, RT): Yes, >5 μm, @
Needle shaped crystals observed? (visual observation by light microscopy) ([1]; in Sodium phosphate monobasic 0.75% in water, 7 days, RT): Yes, >5 μm, @
Needle shaped crystals observed? (visual observation by light microscopy) ([1]; in Sorbitol 5% in water, 7 days, RT): Yes, >5 μm, @
Needle shaped crystals observed? (visual observation by light microscopy) ([1]; in Vitamin E TPGS 0.5% in water, 6 days, RT): Yes, <5 μm @
Needle shaped crystals observed? (visual observation by light microscopy) ([1]; in Zinc acetate […] in water, 7 days, RT): Yes, >5 μm, @
crystal growth ([1]; in any of the hydrophobic carriers of Table 2): did not grow
crystal growth ([1]; in aqueous solutions of benzalkonium chloride, CARBOPOL ULTREZ 10, or poloxamer 407): did not grow
Particle size, Mean (number-weighted differential distribution) [2, 8]: 0.861 μm
Particle size, Median (number-weighted differential distribution) [2, 8]: 0.710 μm
Particle size, Mode (number-weighted differential distribution) [2, 8]: 0.572 μm
Particle size, Mean (number-weighted differential distribution) [2, 9]: 0.83 μm
SSA [3, 8]: 41.24 m^2/g
SSA [3, 9]: 26.72 m^2/g
bulk density (not-tapped) [4, 8]: 0.05 g/mL
bulk density (not-tapped) [4, 9]: 0.09 g/mL
effect of the presence of the nanoparticles in the formulations on dermal irritation (Gottingen minipigs): negligible effect

CC(=O)O[C@H]1C(=O)[C@@]2(C)[C@H]([C@H](OC(=O)c3ccccc3)[C@]3(O)C[C@H](OC(=O)[C@H](O)[C@@H](NC(=O)c4ccccc4)c4ccccc4)C(C)=C1C3(C)C)[C@]1(OC(C)=O)CO[C@@H]1C[C@@H]2O [Paclitaxel, paclitaxel]
Paclitaxel Solubility at RT ([5]; in Benzyl Alcohol, NF): 17.02% w/w
Paclitaxel Solubility at RT ([5]; in Diethylene Glycol Monoethyl Ether, NF (TRANSCUTOL P)): 33.10% w/w
Paclitaxel Solubility at RT ([5]; in Diisopropyl Adipate (CERAPHYL 230)): 3.51% w/w
Paclitaxel Solubility at RT ([5]; in Dimethyl Isosorbide): 38.22% w/w
Paclitaxel Solubility at RT ([5]; in Hexylene Glycol): 4.07% w/w
Paclitaxel Solubility at RT ([5]; in Isopropyl Myristate, NF): 0.048% w/w
Paclitaxel Solubility at RT ([5]; in Medium Chain Triglycerides, NF): 0.32% w/w
Paclitaxel Solubility at RT ([5]; in Mineral Oil, USP (heavy)): 0.3 ppm
Paclitaxel Solubility at RT ([5]; in Polyethylene Glycol 400, NF): 22.30% w/w
Paclitaxel Solubility at RT ([5]; in Propylene Carbonate): 4.74% w/w
Paclitaxel Solubility at RT ([5]; in Propylene Glycol, USP): 0.88% w/w
Paclitaxel Solubility at RT ([5]; in Super Refined Oleic Acid, NF): 0.041% w/w
Paclitaxel Solubility at RT ([5]; in Super Refined Oleyl Alcohol, NF): 0.38% w/w
solubility of paclitaxel in water ([5]; in water, method of Example 1): less than 0.05 ppm

CC(=O)O[C@@]12CO[C@@H]1C[C@H](O)[C@@]1(C)C(=O)[C@H](O)C3=C(C)[C@@H](OC(=O)[C@H](O)[C@@H](NC(=O)OC(C)(C)C)c4ccccc4)C[C@@](O)([C@@H](OC(=O)c4ccccc4)[C@H]21)C3(C)C [docetaxel nanoparticles, docetaxel]
dissolution rate, % dissolved in 30 minutes ([6]; nanoparticles made by milling): 9%
dissolution rate, % dissolved in 30 minutes ([6]; nanoparticles made by the supercritical carbon dioxide method): 27%

CCCCCCCCCCCCN1CCCCCC1=O [laurocapram, 1-Dodecyl azacycloheptan-2-one]
local skin irritation (rabbit skin): edema and erythema have been observed

Cyclomethicone
irritation to vaginal tissues [7]: non-irritating
